{"source": "paper PMC6162201", "about": "“Towards a comprehensive understanding of the structural dynamics of a bacterial diterpene synthase during catalysis” (Nature Communications, 2018)", "biological_target": "T1, CotB2 (CotB2^wt) (Streptomyces melanosporofaciens, UniProt C9K1X5)", "T1 construct": "C-terminal His6 tag, pET-24a, expressed in E. coli Rosetta2 (DE3)", "T1 sequence (C9K1X5 1-307)": "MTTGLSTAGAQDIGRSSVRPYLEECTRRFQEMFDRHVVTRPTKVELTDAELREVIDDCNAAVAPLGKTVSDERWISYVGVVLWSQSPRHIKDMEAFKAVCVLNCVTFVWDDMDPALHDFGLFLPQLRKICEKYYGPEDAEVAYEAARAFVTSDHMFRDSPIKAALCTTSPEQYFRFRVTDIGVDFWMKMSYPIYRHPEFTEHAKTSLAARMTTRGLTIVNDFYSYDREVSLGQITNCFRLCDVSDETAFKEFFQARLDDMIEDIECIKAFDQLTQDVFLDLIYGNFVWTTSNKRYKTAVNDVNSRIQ", "type": "binding", "conditions": "Mg2+ (three ions), pH 8.5; active site, diphosphate mimic, closed state", "data": [{"smiles": "NCCCC(O)(P(=O)(O)O)P(=O)(O)O", "note": "[AHD, (4-amino-1-hydroxy-1-phosphonobutyl)phosphonate]", "values": [{"measurement": "X-ray crystal structure, co-crystallisation", "result": "we crystallised CotB2 with (4-amino-1-hydroxy-1-phosphonobutyl)phosphonate (alendronate (AHD)"}]}]}
